Reference: patent US8829049B2, “Medicinal composition intended for the treatment of erectile dysfunction in mammals and use of the composition” (ACEF S.A., priority 2009, dated 2014)
Entries after “also recorded” stand apart in the source; their conditions may differ. Counter-ions that a name gives are not always drawn.

What was measured:
patients = settings: cited from earlier work; for interaction with nitrates: combination with nitroglycerin / organic nitrates; for adverse effects: patients
[1] = cited from earlier work
[2] = heart rate and adverse signs in the treated mice; assay type: in vivo; settings: for Heart rate, AVERAGE, after: after administration; for Heart rate, AVERAGE, before: before administration; for adverse signs observed (tachycardia, shaking): intraperitoneal, Group I sildenafil citrate, Group III cubebin
Experimental: (§1) 42 Swiss mice have been used, adults, between 18 and 24 weeks old, weighing between 25 and 35 grams, from the Biotherium of the University of Franca (UNIFRAN), which were confined in plastic cages with metal fences and fed with standard feed (Labina-Purina) and water ad libitum, at room temperature of 22° C.
After a period of adaptation, the animals have been divided into seven groups, as per Table 1 below: […]

[3] = target: phosphodiesterase 5 (PDE-5) (Homo sapiens, UniProt O76074); experiment: activity test for the enzyme phosphodiesterase 5 (PDE-5); assay type: biochemical; settings: PDE-5 enzyme activity; read-out: 50% effective dose (DE50)
Swiss mice = experiment: vasodilating effect / penile erection test in Swiss mice, intraperitoneal administration, with penile histology; assay type: in vivo
Experimental: as §1
After a period of adaptation, the animals have been divided into seven groups, as per Table 1 below:
Animals from all groups have been kept under the same conditions for four hours for later evaluation of the studied pharmacological effect. They were subsequently anesthetized with a solution of 1.5 mg of ketamine plus 0.1 mg of xylazine and then euthanized to take off the penile tissue. Each sample was immediately stocked in 10% formaldehyde to make histological slides.

For CCCc1nc(C)c2c(=O)[nH]c(-c3cc(S(=O)(=O)N4CCN(CC)CC4)ccc3OCC)nn12 [Vardenafil], the interaction with nitrates (patients) is listed as “minimum changes in heart rate and blood pressure” and the “time to maximum plasma concentration” value ([1]; single doses of 10 or 20 mg) is listed as at most 0.7 h.
In the case of OC1OC[C@H](Cc2ccc3c(c2)OCO3)[C@H]1Cc1ccc2c(c1)OCO2 (mixture of isomers) [cubebin], the “Heart rate, AVERAGE, after” value [2] is reported as 553.5, the “Heart rate, AVERAGE, before” value [2] is reported as 621.7 and the “adverse signs observed (tachycardia, shaking)” value [2] is reported as “not causing tachycardia or shaking”. It also gave an EC50 [3] of 16.6 ± 8.2 µM.
With hydroethylic desildenafil citrate the EC50 [3] was 38.4 ± 1.8 µM.
In the case of CCCc1nn(C)c2c(=O)[nH]c(-c3cc(S(=O)(=O)N4CCN(C)CC4)ccc3OCC)nc12 [sildenafil citrate], the “deaths related to the drug reported” value (patients; in vivo) is listed as “More than 500 deaths”, the rate of deaths (patients; in vivo) is listed as “fifty” and the adverse effects (patients) is listed as “cephalea, red skin, dyspepsia, nose congestion and visual disturbances”. For the same compound, the “half life in circulation” value ([1]; in vivo) was “four”, the “Heart rate, AVERAGE, after” value [2] was 627.75 and the “Heart rate, AVERAGE, before” value [2] was 628.5. The “adverse signs observed (tachycardia, shaking)” value [2] was “tachycardia, shaking and testicle tumescence”.
In the case of CN1CC(=O)N2[C@H](c3ccc4c(c3)OCO4)c3[nH]c4ccccc4c3C[C@@H]2C1=O [Tadalafil], the interaction with nitrates (patients) is listed as “modest synergic effects” and the adverse effects (patients) is listed as “patients did not have red skin”.
For O[C@H]1OC[C@H](Cc2ccc3c(c2)OCO3)[C@H]1Cc1ccc2c(c1)OCO2 [cubebin], the ejaculation after treatment (Swiss mice; mice of Group III, FIGS. 4c and 4d) was “ejaculating after said treatment”, the “penile erection / sexual behaviour observed” value (Swiss mice; mice, intraperitoneal, Group I sildenafil citrate, Group III 20 mg/kg cubebin) was “prolonged erection and licked the penis; also recorded: penile erection” and the “histology of corpus cavernosum” value (Swiss mice; mouse penile tissue, H. E., 400×) was “void space very dilated and congested”.
